Experimental data reported in article PMC4876117, “Functional Dissection of the Bipartite Active Site of the Class I Coenzyme A (CoA)-Transferase Succinyl-CoA:Acetate CoA-Transferase” (Frontiers in Chemistry, 2016).

Legend:
AarC (AarCH6) [1] = target: T1, AarC (AarCH6) (Acetobacter aceti, UniProt B3EY95); assay: X-ray crystallography (co-crystal); type: binding; settings: sodium citrate, imidazole pH 8.2, 22 °C
T1 construct: C-terminal hexahistidine tag kept, plasmid pJK385 (N347A: pJK524), expressed in E. coli C41(DE3) pREP4-groESL, homodimer

AarC (AarCH6) [2] = target: T2, AarC (AarCH6) (Acetobacter aceti, UniProt B3EY95, N347A); assay: X-ray crystallography (co-crystal); type: binding; settings: 10 mM CoA, sodium citrate, imidazole pH 8.2, 22 °C; 2.13 Å; active site
T2 construct: C-terminal hexahistidine tag kept, plasmid pJK385 (N347A: pJK524), expressed in E. coli C41(DE3) pREP4-groESL, homodimer
T2 sequence (B3EY95 whole entry N347A): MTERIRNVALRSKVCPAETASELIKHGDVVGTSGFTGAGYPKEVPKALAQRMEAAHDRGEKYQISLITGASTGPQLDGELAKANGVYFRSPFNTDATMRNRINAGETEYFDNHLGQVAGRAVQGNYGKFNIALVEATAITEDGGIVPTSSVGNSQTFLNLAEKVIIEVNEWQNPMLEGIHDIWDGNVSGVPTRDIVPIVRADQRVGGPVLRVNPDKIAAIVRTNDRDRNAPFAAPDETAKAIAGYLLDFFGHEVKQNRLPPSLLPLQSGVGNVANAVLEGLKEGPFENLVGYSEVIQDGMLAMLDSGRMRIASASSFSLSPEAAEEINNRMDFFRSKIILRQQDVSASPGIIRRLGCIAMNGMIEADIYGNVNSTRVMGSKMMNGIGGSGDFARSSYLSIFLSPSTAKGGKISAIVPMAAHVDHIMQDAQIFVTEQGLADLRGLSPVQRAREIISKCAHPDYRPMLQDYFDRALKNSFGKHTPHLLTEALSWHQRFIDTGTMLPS

Q: For `CCCNC(=O)CCNC(=O)[C@H](O)C(C)(C)COP(=O)(O)OP(=O)(O)OC[C@H]1O[C@@H](n2cnc3c(N)ncnc32)[C@H](O)[C@@H]1OP(=O)(O)O` [2a, 3′-phosphoadenosine 5′-(O-(N-propyl-R-pantothenamide))pyrophosphate], which “X-ray crystallography (co-crystal)” value (AarC (AarCH6) [1]; 1-3 mM 2a, 1.66 Å, active site, 5dw6 is the complex with added acetate (1.55 Å)) is on record?
A: The AarC•2a complex (PDB entry 5dw5) contained three chloride ions

Q: Which “X-ray crystallography (co-crystal)” value (AarC (AarCH6) [2]) does the source give for `CC(C)(COP(=O)(O)OP(=O)(O)OC[C@H]1O[C@@H](n2cnc3c(N)ncnc32)[C@H](O)[C@@H]1OP(=O)(O)O)[C@@H](O)C(=O)NCCC(=O)NCCS` [CoA] here?
A: The B subunits of AarC-N347A (PDB entry 5ddk, white carbon atoms)

Q: For `CC(=O)O` [acetate], which “X-ray crystallography (co-crystal)” value (AarC (AarCH6) [1]; 1-50 mM sodium acetate, 1.62 Å, three sites per subunit, the first near the active site, also in 5dw6 with 2a) is on record?
A: The final model contained three acetate binding sites in each subunit
